Test results published in US20030138433A1, “Autologous adoptive immunotherapy with antigen-specific primed T cells or B cells to promote antigen-specific immune responses with an appropriate cytokine bias” (priority 1999, published 2003).

Columns and labels:
[1] = tested on: Total splenic B cells from C3H, AKR, C3H.lpr and MRL.gld mice; test: DNA content of total splenic B cells (saponin/propidium iodide flow cytometry); format: cell-based; conditions: B cells from lpr animals compared with normal animals
Procedure: Total splenic B cells were isolated from C3H, AKR, C3H.lpr, and MRL.gld mice. The cells were cultured overnight, harvested, permeabilized in saponin, stained with propidium iodide (PI) which intercalates into DNA, and analyzed by flow cytometry. Because the majority of cells in these preparations are either resting or “growth arrested,” the predominant peak in the untreated samples is the G0/G1 peak (2N DNA).

[2] = tested on: Splenic B cells from AKR mice (resting, in vitro primed, in vivo activated); test: Apoptotic death of splenic B cells scored by nucleosome-sized DNA fragments (densitometry); format: cell-based; conditions: 10 μM, primed and activated B cells
Procedure: Splenic B cells from AKR mice were separated on a Percoll density gradient and two fractions were collected: small, high-density, resting B cells were obtained from the 1.079<ρ<1.085 g/ml interface and large in vivo activated B cells were collected at the BSS<ρ<1.066 g/ml interface. In vitro primed B cells were obtained by treating resting B cells with 16U recombinant IL-4 and by incubating them overnight on anti-Ig-coated plates. […] Apoptotic death was scored by quantitating the formation of nucleosome-sized DNA fragments by densitometry.

[3] = tested on: L1210 cells; test: Methotrexate-induced cell death (flow cytometry, ethidium bromide, DNA fragments); format: cell-based, mouse (BALB/c-derived)
Procedure: (§1) L1210 and L1210/DDP cells were treated overnight with 5×10^−7 M methotrexate. […] The forward scatter low populations took up ethidium bromide differentially. The L1210 cells took up a moderate amount of ethidium bromide whereas the L1210/DDP cells took up large amounts. […] This latter phenotype—loss in forward scatter and membrane permeability with no “DNA laddering”—is the hall mark of oncosis.
(§2) L1210 and L1210/DDP cells were treated with a dose of methotrexate that produced moderate amounts of cell death. (Even though L1210/DDP is “methotrexate resistant”, the drug does induce cell death in the cultures; the surviving cells which grow out of the culture are responsible for the lines “drug resistant” appellation).

[4] = tested on: L1210/DDP cells; test: as above; format: cell-based, mouse (BALB/c-derived)
Procedure: as §1, §2

[5] = tested on: transgenic mice expressing a hen egg lysozyme (HEL)-specific T cell receptor (3A9) crossed with MHC class II transgenic mice; test: In vivo antigen pulse of 3A9 x MHC class II transgenic crosses, spleen cell analysis; conditions: 100 μg, six days after injection
Procedure: Mouse spleens were removed after sacrifice and placed into 4 ml PBS, 0.1% BSA in a petri dish. A single cell suspension was prepared using the frosted ends of two microscope slides. Cells were then transferred into a 15 ml tube. The cell suspension was underlayed with 2 ml Ficoll-paque and then centrifuged for 15 min. at 1,000×g. Lymphocytes at the interface were collected and washed 3× with ice-cold 15 ml PBS, 0.1% BSA. Cells were counted and resuspended to 1.6×10^7 viable cells per ml concentration, in RPMI 1640 25 mM HEPES, 50 μM 2-ME, 10% FBS, 1× L-glutamine, 1× sodium pyruvate, 1× nonessential amino acids.
The FACScalibur, flow cytometer was calibrated using Becton-Dickinson calibration beads prior to each four color analysis run. Cells also were analyzed on a FACScan™ with CellQuest software (Becton Dickinson, San Jose, Calif.).
Two different crosses between the mice carrying the different transgenes were generated. Transgenic mice expressing a hen egg lysozyme (HEL)-specific T cell receptor (3A9) were crossed with: (i) the transgenic mice expressing wild type MIIC class II on a null MHC class II background, and (ii) the transgenic mice expressing hybrid MHC class II-MCH class I molecules on a null MHC class II background.
Mice, 4-8 weeks old, generated from the above-identified crosses were pulsed in vivo with an injection of 100 μg total of antigen (HEL). Six days after injenction, the cells from splenes were harvested, as described above, and analyzed. […] Additionally, the “tail” of MHC class II is not necessary for the proper loading and presentation of antigen.

[6] = 3A9×wild type MHC class II on null background

Q: How did the “DNA fragmentation, lpr vs normal B cells” value [1] turn out when `CC[C@H]1CN2CCc3cc(OC)c(OC)cc3[C@@H]2C[C@@H]1C[C@H]1NCCc2cc(OC)c(OC)cc21` [emetine] was run?
A: equally capable of fragmenting DNA

Q: Which induction of apoptosis [2] does the source give for `CC(C)NCC(O)c1ccc(O)c(O)c1` (stereo not drawn) [isoproterenol] here?
A: induces apoptosis in all three populations

Q: How did the “mode of cell death” value ([3]; L1210) turn out when `CN(Cc1cnc2nc(N)nc(N)c2n1)c1ccc(C(=O)N[C@@H](CCC(=O)O)C(=O)O)cc1` [methotrexate] was run?
A: die by apoptosis

Q: What about the DNA fragments ([3]; L1210, 5×10^−7 M overnight) of the same compound?
A: produced a ladder of nucleosome sized fragments indicative of apoptosis

Q: And the “mode of cell death” value [4]?
A: die by oncosis

Q: And the DNA fragments ([4]; 5×10^−7 M overnight)?
A: did not

Q: Which results are given for hen egg lysozyme [HEL]?
A: T cells in spleen ([5]; 3A9×hybrid MHC class II-MHC class I on null background): a CD4^+ T cell subset missing; MHC class II bearing B cells in spleen [5, 6]: no MHC class II bearing B cells; T cells in spleen [5, 6]: normal T cell numbers
